What all share (assay type): physicochemical
A short description of series [1]: Viscosity (viscometer/densimeter SVM 3000). The protocol:
(§1) The equipment used is: • 15 mL flasks • A refrigerated cabinet at 0° C. (Panasonic—MR-154-PE) • 3 mL pipettes • An analytical balance (OHAUS Adventurer Pro AV264C) • A watch glass • A spatula • A tensiometer, brand name K100, sold by KRÜSS GmbH, Borsteler Chaussee 85, 22453 Hamburg, Germany. • A 70 mL crystallizing dish • A platinum blade • KRUSS laboratory software • A viscometer/densimeter SVM 3000—Anton Paar
(§2) The compositions of formulae 19 to 23 and the dispersants of the prior art are tested for surface tension in order to find the wettability thereof, by using a fine plate (called a Wilhelmy plate) connected to an analytical balance. The method of the Wilhelmy blade on the K100 is used. A 70 mL crystallizing dish filled with 30 mL of product to be tested is placed in the K100. The platinum blade is arranged over the product. The KRUSS Laboratory software determines the surface tension of the liquid, via the force felt by the blade in the liquid. The viscosity and the density are also measured.

Series [2] in a line: Density (viscometer/densimeter SVM 3000). The protocol: as §1, §2
Series [3] is described as follows: Surface tension, Wilhelmy blade method on the K100 tensiometer. The protocol:
as §1, §2

Data on 1 compound can be found in patent publication US20190191695A1, “DISSOLVENT COMPOSITION, STABLE UNDER COLD CONDITIONS” (OLEON NV, priority 2016, published 2019).

SMILES strings stand for the structures.

For the compound `CN1CCCC1=O` [NMP, N-methyl-2-pyrrolidone], in series [1], the “Viscosity at 20° C.” value is listed as 1.7 mm^2/s. Moreover, the “Density at 20° C.” value in series [2] came out at 1.03 g/mL. The “Surface tension at 20° C.” value in series [3] amounted to 40 mN/m.
